Measured values reported in patent US8309558B2, “Compounds for the treatment of hepatitis C” (Bristol-Myers Squibb Company, priority 2008, dated 2012).

Key:
[1] = molecular target: T1, HCV NS5B RdRp genotype 1b (Hepatitis C virus genotype 1b, UniProt Q9WMX2); assay: Standard HCV NS5B RdRp enzyme assay; type: biochemical; conditions: Table 1a; HCV NS5B RdRp genotype 1b; read-out: IC50
T1 construct: The protein was expressed with an 18 amino acid C-terminal truncation to enhance the solubility; made in house; host or cells: E. coli BL21(DE3), pET21a vector
Protocol: HCV NS5B RdRp cloning, expression, and purification. The cDNA encoding the NS5B protein of HCV, genotype 1b, was cloned into the pET21a expression vector. The protein was expressed with an 18 amino acid C-terminal truncation to enhance the solubility. The E. coli competent cell line BL21(DE3) was used for expression of the protein. Cultures were grown at 37° C. for ˜4 hours until the cultures reached an optical density of 2.0 at 600 nm. The cultures were cooled to 20° C. and induced with 1 mM IPTG. Fresh ampicillin was added to a final concentration of 50 μg/ml and the cells were grown overnight at 20° C.
Cell pellets (3 L) were lysed for purification to yield 15-24 mgs of purified NS5B. The lysis buffer consisted of 20 mM Tris-HCl, pH 7.4, 500 mM NaCl, 0.5% triton X-100, 1 mM DTT, 1 mM EDTA, 20% glycerol, 0.5 mg/ml lysozyme, 10 mM MgCl2, 15 ug/ml deoxyribonuclease I, and Complete TM protease inhibitor tablets (Roche). After addition of the lysis buffer, frozen cell pellets were resuspended using a tissue homogenizer. To reduce the viscosity of the sample, aliquots of the lysate were sonicated on ice using a microtip attached to a Branson sonicator. The sonicated lysate was centrifuged at 100,000×g for 1 hr at 4° C. and filtered through a 0.2 μm filter unit (Corning).
The protein was purified using three sequential chromatography steps: Heparin sepharose CL-6B, polyU sepharose 4B, and Hitrap SP sepharose (Pharmacia). The chromatography buffers were identical to the lysis buffer but contained no lysozyme, deoxyribonuclease I, MgC12 or protease inhibitor and the NaCl concentration of the buffer was adjusted according to the requirements for charging the protein onto the column. Each column was eluted with a NaCl gradient which varied in length from 5-50 column volumes depending on the column type. After the final chromatography step, the resulting purity of the enzyme is >90% based on SDS-PAGE analysis. The enzyme was aliquoted and stored at −80° C.
Standard HCV NS5B RdRp enzyme assay. HCV RdRp genotype 1b assays were run in a final volume of 60 μl in 96 well plates (Costar 3912). The assay buffer composed of 20 mM Hepes, pH 7.5, 2.5 mM KCl, 2.5 mM MgCl2, 1 mM DTT, 1.6 U RNAse inhibitor (Promega N2515), 0.1 mg/ml BSA (Promega R3961), and 2% glycerol. All compounds were serially diluted (3-fold) in DMSO and diluted further in water such that the final concentration of DMSO in the assay was 2%. HCV RdRp genotype 1b enzyme was used at a final concentration of 28 nM. A polyA template was used at 6 nM, and a biotinylated oligo-dT12 primer was used at 180 nM final concentration. Template was obtained commercially (Amersham 27-4110). Biotinylated primer was prepared by Sigma Genosys. 3H-UTP was used at 0.6 μCi (0.29 μM total UTP). Reactions were initiated by the addition of enzyme, incubated at 30° C. for 60 min, and stopped by adding 25 μl of 50 mM EDTA containing SPA beads (4 μg/μl, Amersham RPNQ 0007). Plates were read on a Packard Top Count NXT after >1 hr incubation at room temperature.
IC50 values for compounds were determined using seven different [I]. IC50 values were calculated from the inhibition using the formula y=A+((B−A)/(1+((C/x)^D))).

[2] = tested on: HCV replicon cells; assay: HCV replicon FRET / luciferase assay (96-well plates); type: cell-based; conditions: Hepatitis C virus, Table 1a; HCV replicon; read-out: EC50
Procedure, shortened: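 Readout was NS3 protease cleavage of an EDANS/DABCYL FRET peptide (20 μM final) in lysed HCV replicon cells, or Renilla luciferase in reporter replicons. Background came from wells with the highest level of control protease inhibitor. EC50 marked the concentration giving 50% signal reduction.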

T1 sequence (Q9WMX2 2420-2992): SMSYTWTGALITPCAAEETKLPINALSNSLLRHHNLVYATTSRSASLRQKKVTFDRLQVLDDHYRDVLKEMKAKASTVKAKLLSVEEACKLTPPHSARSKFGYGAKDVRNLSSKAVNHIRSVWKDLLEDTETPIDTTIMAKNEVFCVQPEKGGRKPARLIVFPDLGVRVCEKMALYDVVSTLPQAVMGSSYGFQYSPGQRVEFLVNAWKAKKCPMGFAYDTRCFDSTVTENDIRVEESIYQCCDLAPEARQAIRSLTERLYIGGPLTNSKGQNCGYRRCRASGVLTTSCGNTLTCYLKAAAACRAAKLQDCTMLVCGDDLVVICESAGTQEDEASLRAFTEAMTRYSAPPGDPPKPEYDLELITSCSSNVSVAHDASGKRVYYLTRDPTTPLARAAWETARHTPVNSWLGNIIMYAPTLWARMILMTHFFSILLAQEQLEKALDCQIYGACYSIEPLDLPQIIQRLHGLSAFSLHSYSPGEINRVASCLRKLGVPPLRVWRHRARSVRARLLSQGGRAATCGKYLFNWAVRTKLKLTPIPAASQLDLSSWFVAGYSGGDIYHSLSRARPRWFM

| SMILES | IC50 [1] | EC50 [2] |
| --- | --- | --- |
| CNC(=O)c1c(-c2ccc(F)cc2)oc2ccc(-c3cccc(C(=O)NCCC(C)(C)C)c3)cc12 | < 250 nM | < 250 nM |
| CNC(=O)c1c(-c2ccc(F)cc2)oc2ccc(-c3cccc(C(=O)NCc4cccc(F)c4)c3)cc12 | < 250 nM | < 250 nM |
| CNC(=O)c1c(-c2ccc(F)cc2)oc2ccc(-c3cccc(C(=O)NCc4ccccc4)c3)cc12 | < 250 nM | < 250 nM |
| CNC(=O)c1c(-c2ccc(F)cc2)oc2ccc(-c3cccc(C(=O)NCc4ccc(F)cc4)c3)cc12 | < 250 nM | < 250 nM |
| CNC(=O)c1c(-c2ccc(F)cc2)oc2ccc(-c3cccc(C(=O)Nc4nc(C)cs4)c3)cc12 | < 250 nM | 250 to 1000 nM |
| CNC(=O)c1c(-c2ccc(F)cc2)oc2ccc(-c3ccc(C(=O)NC(C)(C)C)cc3)cc12 | 1000 to 10000 nM | 250 to 1000 nM |
| CNC(=O)c1c(-c2ccc(F)cc2)oc2ccc(-c3ccc(C(=O)NCC(C)C)cc3)cc12 | > 10000 nM | 250 to 1000 nM |
| CNC(=O)c1c(-c2ccc(F)cc2)oc2ccc(-c3ccc(C(=O)N(C)CCc4ccccn4)cc3)cc12 | < 250 nM | < 250 nM |
| CNC(=O)c1c(-c2ccc(F)cc2)oc2ccc(-c3cccc(C(=O)Nc4ccncn4)c3)cc12 | 250 to 1000 nM | 250 to 1000 nM |
| CNC(=O)c1c(-c2ccc(F)cc2)oc2ccc(-c3cccc(C(=O)Nc4cccc(C)c4)c3)cc12 | 250 to 1000 nM | 250 to 1000 nM |
| CCOC(=O)CC(C)NC(=O)c1cccc(-c2ccc3oc(-c4ccc(F)cc4)c(C(=O)NC)c3c2)c1 (centres unmarked) | < 250 nM | 250 to 1000 nM |
| CNC(=O)c1c(-c2ccc(F)cc2)oc2ccc(-c3cccc(C(=O)NC(CC(C)C)C(N)=O)c3)cc12 (centres unmarked) | 250 to 1000 nM | 250 to 1000 nM |
| CNC(=O)c1c(-c2ccc(F)cc2)oc2ccc(-c3cccc(C(=O)NC(C)(C)CC(C)=O)c3)cc12 | 250 to 1000 nM | 250 to 1000 nM |
| CCn1nccc1NC(=O)c1cccc(-c2ccc3oc(-c4ccc(F)cc4)c(C(=O)NC)c3c2)c1 | 250 to 1000 nM | 250 to 1000 nM |
| CNC(=O)c1c(-c2ccc(F)cc2)oc2ccc(-c3cccc(C(=O)N[C@H]4CCC[C@H]4C(N)=O)c3)cc12 | 250 to 1000 nM | 250 to 1000 nM |
| CNC(=O)c1c(-c2ccc(F)cc2)oc2ccc(-c3cccc(C(=O)NC(CCO)c4ccccc4)c3)cc12 (centres unmarked) | < 250 nM | 250 to 1000 nM |
| CNC(=O)c1c(-c2ccc(F)cc2)oc2ccc(-c3cccc(C(=O)N[C@@H]4CCc5ccc(O)cc54)c3)cc12 | > 1390 nM | 250 to 1000 nM |
| CNC(=O)c1c(-c2ccc(F)cc2)oc2ccc(-c3cccc(C(=O)Nc4ccnc(C)c4)c3)cc12 | 1000 to 10000 nM | 250 to 1000 nM |
| CNC(=O)c1c(-c2ccc(F)cc2)oc2ccc(-c3cccc(C(=O)NC(C)c4cccnc4)c3)cc12 (centres unmarked) | < 250 nM | 250 to 1000 nM |
| CNC(=O)c1c(-c2ccc(F)cc2)oc2ccc(-c3cccc(C(=O)N4CCC[C@H]4C(=O)N(C)C)c3)cc12 | 250 to 1000 nM | 250 to 1000 nM |
| CNC(=O)c1c(-c2ccc(F)cc2)oc2ccc(-c3cccc(C(=O)N4CCCC4c4ccccn4)c3)cc12 (centres unmarked) | 250 to 1000 nM | 250 to 1000 nM |
| CNC(=O)c1c(-c2ccc(F)cc2)oc2ccc(-c3cccc(C(=O)NC(C)CCc4ccccc4)c3)cc12 (centres unmarked) | 250 to 1000 nM | 250 to 1000 nM |

| SMILES | IC50 [1] | EC50 [2] |
| --- | --- | --- |
| CNC(=O)c1c(-c2ccc(F)cc2)oc2ccc(-c3cccc(C(=O)NC(C)(C)c4cccc5ccccc45)c3)cc12 | 250 to 1000 nM | 250 to 1000 nM |
| CNC(=O)c1c(-c2ccc(F)cc2)oc2ccc(-c3cccc(C(=O)Nc4nccs4)c3)cc12 | < 250 nM | 250 to 1000 nM |
| CNC(=O)c1c(-c2ccc(F)cc2)oc2ccc(-c3ccccn3)cc12 | 1000 to 10000 nM | 250 to 1000 nM |
| CNC(=O)c1c(-c2ccc(F)cc2)oc2ccc(-c3cccc(C#N)c3)cc12 | > 10000 nM | 250 to 1000 nM |
| CNC(=O)c1c(-c2ccc(F)cc2)oc2ccc(-c3cccc4[nH]ccc34)cc12 | > 10000 nM | 250 to 1000 nM |
| CNC(=O)c1c(-c2ccc(F)cc2)oc2ccc(-c3cccc(C(=O)N(C)Cc4ccccc4)c3)cc12 | 250 to 1000 nM | 250 to 1000 nM |
| CNC(=O)c1c(-c2ccc(F)cc2)oc2ccc(-c3cccc(C(=O)N4CCCC4c4ccccc4)c3)cc12 (centres unmarked) | 250 to 1000 nM | 250 to 1000 nM |
| CNC(=O)c1c(-c2ccc(F)cc2)oc2ccc(-c3cccc(C(=O)N4CCC(c5ccc(F)cc5)C4)c3)cc12 (centres unmarked) | 250 to 1000 nM | 250 to 1000 nM |
| CCNC(=O)C(C)(C)NC(=O)c1cccc(-c2ccc3oc(-c4ccc(F)cc4)c(C(=O)NC)c3c2)c1 | 250 to 1000 nM | 250 to 1000 nM |
| CNC(=O)c1c(-c2ccc(F)cc2)oc2ccc(-c3cccc(C(=O)NC(C)(C)C(=O)NCC#N)c3)cc12 | < 250 nM | 250 to 1000 nM |
| C=CCNC(=O)C(C)(C)NC(=O)c1cccc(-c2ccc3oc(-c4ccc(F)cc4)c(C(=O)NC)c3c2)c1 | 250 to 1000 nM | 250 to 1000 nM |
| CNC(=O)c1c(-c2ccc(F)cc2)oc2ccc(-c3cc(C(=O)NCC(C)C)ccc3OC(C)C)cc12 | 250 to 1000 nM | 250 to 1000 nM |
| CNC(=O)c1c(-c2ccc(F)cc2)oc2cc(NC(=O)COC)c(-c3cccc(C(=O)NC4(c5ccccc5)CC4)c3)cc12 | 250 to 1000 nM | 250 to 1000 nM |
| CNC(=O)c1c(-c2ccc(F)cc2)oc2ccc(-c3cc(C(=O)NCC(C)C)ccc3OC3CCC3)cc12 | > 1390 nM | 250 to 1000 nM |
| CNC(=O)c1c(-c2ccc(F)cc2)oc2cc([N+](=O)[O-])c(-c3cc(C(=O)NCC(C)C)ccc3OC)cc12 | 250 to 1000 nM | 250 to 1000 nM |
| CNC(=O)c1c(-c2ccc(F)cc2)oc2ccc(Oc3ccc(/C=C(\NC(=O)c4ccccc4)C(=O)OC)cc3)cc12 | 1000 to 10000 nM | 1000 to 10000 nM |
| CNC(=O)c1c(-c2ccc(F)cc2)oc2ccc(-c3cnc(OC)nc3)cc12 | 1000 to 10000 nM | 1000 to 10000 nM |
| CNC(=O)c1c(-c2ccc(F)cc2)oc2ccc(-c3ccc(C(=O)O)cc3)cc12 | 250 to 1000 nM | 1000 to 10000 nM |
| CNC(=O)c1c(-c2ccc(F)cc2)oc2ccc(-c3cccc(C(=O)NCCN(C)C)c3)cc12 | 1000 to 10000 nM | 1000 to 10000 nM |
| CNC(=O)c1c(-c2ccc(F)cc2)oc2ccc(-c3ccc(/C=C/C(=O)O)cc3)cc12 | 1000 to 10000 nM | 1000 to 10000 nM |
| CNC(=O)c1c(-c2ccc(F)cc2)oc2ccc(-c3cccc(NC(C)=O)c3)cc12 | 1000 to 10000 nM | 1000 to 10000 nM |
